Positions count from the first letter of the chain named. pEC50: −log10 of the molar value.
Columns and labels:
H875Q-AR = biological target: T1, H875Q-AR (Homo sapiens, UniProt P10275, H875Q); test: cell-based
T1 sequence (P10275 1-920 H875Q): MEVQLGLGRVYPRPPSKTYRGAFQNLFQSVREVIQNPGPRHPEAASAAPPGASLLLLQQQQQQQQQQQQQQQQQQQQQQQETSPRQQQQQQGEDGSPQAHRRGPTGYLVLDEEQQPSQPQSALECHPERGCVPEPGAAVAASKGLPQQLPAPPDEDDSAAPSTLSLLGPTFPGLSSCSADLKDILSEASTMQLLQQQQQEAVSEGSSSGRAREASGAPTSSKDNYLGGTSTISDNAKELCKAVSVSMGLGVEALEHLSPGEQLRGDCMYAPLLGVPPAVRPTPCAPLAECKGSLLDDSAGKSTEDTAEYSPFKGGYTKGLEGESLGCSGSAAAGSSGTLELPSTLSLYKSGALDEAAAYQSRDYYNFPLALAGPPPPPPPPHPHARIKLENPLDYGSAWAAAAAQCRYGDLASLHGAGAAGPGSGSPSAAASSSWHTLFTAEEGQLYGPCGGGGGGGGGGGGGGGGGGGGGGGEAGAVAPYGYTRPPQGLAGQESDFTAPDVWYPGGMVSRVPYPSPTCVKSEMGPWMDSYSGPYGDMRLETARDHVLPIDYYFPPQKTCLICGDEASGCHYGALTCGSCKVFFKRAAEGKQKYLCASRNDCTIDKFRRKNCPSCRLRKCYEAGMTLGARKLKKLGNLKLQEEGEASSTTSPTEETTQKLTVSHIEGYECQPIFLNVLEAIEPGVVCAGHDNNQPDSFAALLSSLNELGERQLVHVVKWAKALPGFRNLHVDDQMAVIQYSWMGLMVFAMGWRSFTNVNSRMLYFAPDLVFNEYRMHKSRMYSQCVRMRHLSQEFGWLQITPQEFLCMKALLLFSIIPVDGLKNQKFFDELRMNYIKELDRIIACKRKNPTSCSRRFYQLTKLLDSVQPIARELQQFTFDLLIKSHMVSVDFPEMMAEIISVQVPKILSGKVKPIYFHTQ

H875Y-AR = biological target: T2, H875Y-AR (Homo sapiens, UniProt P10275, H875Y); assay type: cell-based; details: AR mutant H875Y; transfected PC3 cells; 0.1 nM R1881; drug 0 to 50 μM
T2 sequence (P10275 1-920 H875Y): T1 sequence (P10275 1-920 H875Q) with Q875Y

Row | Agonist response to treatment (H875Y-AR) | SMILES | pEC50 (H875Q-AR)
1 | – | C[C@]12CCC(=O)C=C1CC[C@@H]1[C@@H]2[C@@H](O)C[C@@]2(C)[C@H]1CC[C@]2(O)C(=O)CO [hydrocortisone] | < 6.30
2 | Yes | CC(C)(O)C(=O)Nc1ccc([N+](=O)[O-])c(C(F)(F)F)c1 [Hydroxyflutamide, hydroxyflutamide] | –
